# Assay results as given in article PMC5570900, “Exploiting a novel conformational switch to control innate immunity mediated by complement protein C3a” (Nature Communications, 2017).
# Legend:
# Assay type in all cases: cell-based
# C3aR [1] = target: T1, C3aR (Homo sapiens, UniProt Q16581); assay: Histamine secretion in human LAD2 mast cells (agonist mode); parameters: Concentration-dependent histamine secretion in human LAD2 mast cells; endogenous in cells; host or cells: LAD2 human mast cells; settings: compound alone, 30 min, n ≥ 3, ± SEM
# T1 sequence (Q16581 1-482): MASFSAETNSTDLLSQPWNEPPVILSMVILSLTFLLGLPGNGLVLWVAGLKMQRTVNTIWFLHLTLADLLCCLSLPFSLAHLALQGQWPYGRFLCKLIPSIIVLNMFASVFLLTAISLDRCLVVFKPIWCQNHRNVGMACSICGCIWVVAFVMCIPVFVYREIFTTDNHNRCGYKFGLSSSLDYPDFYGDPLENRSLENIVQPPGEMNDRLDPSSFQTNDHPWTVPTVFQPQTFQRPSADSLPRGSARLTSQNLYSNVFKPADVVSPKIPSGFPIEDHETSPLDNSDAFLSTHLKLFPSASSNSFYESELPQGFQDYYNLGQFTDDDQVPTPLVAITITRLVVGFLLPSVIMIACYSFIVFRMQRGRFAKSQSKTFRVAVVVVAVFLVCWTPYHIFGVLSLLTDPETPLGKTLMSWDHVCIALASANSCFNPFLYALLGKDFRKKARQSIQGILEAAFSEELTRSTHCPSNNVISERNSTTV
# Method: LAD2 human mast cells (kindly provided by Dr Dean Metcalfe, National Institute of Allergy and Infectious Diseases, National Institute of Health) were cultured in StemPro®-34 Serum Free Media (Invitrogen, Australia) supplemented with StemPro®-34 nutrient, 100 U/mL penicillin, 100 μg/mL streptomycin, 2 mM GlutaMAX, and 100 ng/mL human stem cell factor (SCF). Cells were hemi-depleted weekly and were not allowed to grow beyond a density of 0.5 × 10^6/mL. This cell line was authenticated by expression of tryptase and histamine granules. For the histamine assay, 1 × 10^4 cells per well were seeded in StemPro®-34 SFM in 96-well plates for 30 min before any treatments. For agonist studies, the cells were treated with compounds prepared in media for 30 min. For antagonist studies, the cells were pre-treated with compounds prepared in SFM for 30 min before addition of C3aR agonists for another 30 min. Cells were centrifuged (500 g, 5 min, 4 °C) and cell-free supernatants were collected for measuring histamine. Histamine content was measured using the histamine EIA kit according to the manufacturer’s instructions (Abnova, Taiwan). The readings were recorded on a FLUOstar Optima (BMG LabTechnologies, Offenburg, Germany).
# C3aR [2] = target: T1, C3aR; assay: Intracellular Ca2+ release in human monocyte-derived macrophages (agonist mode); parameters: Concentration-dependent Ca^2+ release in human monocyte-derived macrophages (HMDMs); endogenous in cells; host or cells: primary human monocyte-derived macrophages (HMDMs); settings: HMDMs, n ≥ 3, ± SEM
# Method: (§1) HMDMs were isolated using Ficoll-paque density centrifugation (GE Healthcare Bio-Science, Uppsala, Sweden) from buffy coat (of anonymous human donors) provided by the Australian Red Cross Blood Service, Brisbane. CD14^+ monocytes were positively selected using CD14 MicroBeads (Miltenyi Biotech, Auburn, USA)[40], [41]. CD14^+ monocytes were differentiated to HMDMs using 100 ng/mL of recombinant human macrophage colony-stimulating factor (PeptroTech, Rocky Hill, USA) for 7 days in Iscove’s modified Dulbecco’s media supplemented with 10% fetal bovine serum, penicillin (100 U/mL), streptomycin (100 µg/mL) and L-glutamine (2 mM). HMDMs were supplemented after 5 days with fresh medium containing 10 ng/ml macrophage colony-stimulating factor and collected by gentle scraping on day 7.
# (§2) HMDMs were seeded to a 96-well clear-bottom black-wall assay plate at a density of 5 × 10^4 cells per well and allowed to adhere overnight. Prior to assay, cells were incubated with dye-loading buffer (Hank’s balance salt solution (HBSS) buffer, 4 μM Fluo-3 AM, 25 μl Pluronic acid F-127 and 1% fetal bovine serum) for 1 h at 37 °C. Cells were then washed once with assay buffer (HBSS supplemented with 2.5 mM probenecid and 20 mM HEPES, pH 7.4). Intracellular calcium release was monitored using a fluorescence imaging plate reader (excitation 495 nm, emission 520 nm). The percentage responses were plotted against logarithmic concentrations of each test compound[42].
# C3aR [3] = target: T1, C3aR; assay: Inhibition of hC3a-induced Ca2+ release in human monocyte-derived macrophages; parameters: Concentration-dependent Ca^2+ release in human monocyte-derived macrophages (HMDMs); endogenous in cells; host or cells: primary human monocyte-derived macrophages (HMDMs); settings: HMDMs, hC3a 100 nM, n ≥ 3, ± SEM
# Method: as §1, §2
EC50 (C3aR [1]),EC50 (C3aR [2]),IC50 (C3aR [3]),SMILES
20 ± 10 nM,22 ± 8 nM,,Cc1[nH]c(C(c2ccccc2)c2ccccc2)nc1C(=O)N[C@@H](CCCNC(=N)N)C(=O)O [Compound 3]
,,85 ± 40 nM,N=C(N)NCCCC(NC(=O)c1ccc(C(c2ccccc2)c2ccccc2)s1)C(=O)O (stereo not drawn) [Compound 6]
